Tested on: moderate-to-severe chronic spontaneous urticaria (CSU)
Experiment: Phase 2 CSU study: itch severity score over 7 days (ISS7)
Format: in vivo, human
Excerpt: The study comprises a 12 week, randomized, double-blind, placebo-controlled, multi-center, dose-ranging efficacy and safety phase, followed by a 40 week open label extension (OLE) phase (see FIG. 1). The study consists of three phases and an optional OLE phase. […] Clinically, CSU is characterized by the spontaneous and recurrent appearance of pruritic hives. The proposed primary endpoints were the UAS7 at Week 12 in EU and EU reference countries and the ISS7 in the US. Regardless of where a participant was from, all assessments were the same. The UAS7 score is a composite score containing both the HSS7 and the ISS7. This allowed a global assessment of the two key components of urticaria: hives and itch. […] The UAS is a validated PRO measure. […] The daily UAS scores range from 0 to 6 point/day. […] Patients were to complete the UAS using the e-diary. […] The following secondary endpoints were to be analyzed using the same approach as for the primary endpoint: • Change from baseline in UAS7 at Week 4 • Change from baseline in UAS7 at Week 12 (for US and US reference countries) • Change from baseline in ISS7 at Week 12 (except US and US reference countries) • Change from baseline in HSS7 at Week 12

[1] = Week 7, 400 mg TID, Omalizumab-Naïve
[2] = Week 7, 400 mg TID, Prior Omalizumab Use
[3] = Week 8, 400 mg BID, Omalizumab-Naïve
[4] = Week 8, 400 mg BID, Prior Omalizumab Use
[5] = Week 8, 400 mg QPM, Omalizumab-Naïve
[6] = Week 8, 400 mg QPM, Prior Omalizumab Use
[7] = Week 8, 400 mg TID, Omalizumab-Naïve
[8] = Week 8, 400 mg TID, Prior Omalizumab Use
[9] = Week 9, 400 mg BID, Omalizumab-Naïve
[10] = Week 9, 400 mg BID, Prior Omalizumab Use
[11] = Week 9, 400 mg QPM, Omalizumab-Naïve
[12] = Week 9, 400 mg QPM, Prior Omalizumab Use
[13] = Week 9, 400 mg TID, Omalizumab-Naïve
[14] = Week 9, 400 mg TID, Prior Omalizumab Use
[15] = Week 10, 400 mg BID, Omalizumab-Naïve
[16] = Week 10, 400 mg BID, Prior Omalizumab Use
[17] = Week 10, 400 mg QPM, Omalizumab-Naïve
[18] = Week 10, 400 mg QPM, Prior Omalizumab Use
[19] = Week 10, 400 mg TID, Omalizumab-Naïve
[20] = Week 10, 400 mg TID, Prior Omalizumab Use
[21] = Week 11, 400 mg BID, Omalizumab-Naïve
[22] = Week 11, 400 mg BID, Prior Omalizumab Use
[23] = Week 11, 400 mg QPM, Omalizumab-Naïve
[24] = Week 11, 400 mg QPM, Prior Omalizumab Use
[25] = Week 11, 400 mg TID, Omalizumab-Naïve
[26] = Week 11, 400 mg TID, Prior Omalizumab Use
[27] = Week 12, 400 mg BID, Omalizumab-Naïve
[28] = Week 12, 400 mg BID, Prior Omalizumab Use
[29] = Week 12, 400 mg QPM, Omalizumab-Naïve
[30] = Week 12, 400 mg QPM, Prior Omalizumab Use
[31] = Week 12, 400 mg TID, Omalizumab-Naïve
[32] = Week 12, 400 mg TID, Prior Omalizumab Use

## CC(C)(C=C(C#N)C(=O)N1CCC[C@@H](n2nc(-c3ccc(Oc4ccccc4)cc3F)c3c(N)ncnc32)C1)N1CCN(C2COC2)CC1 [rilzabrutinib, (R)-2-[3-[4-amino-3-(2-fluoro-4-phenoxy-phenyl)pyrazolo[3,4-d]pyrimidin-1-yl]piperidine-1-carbonyl]-4-methyl-4-[4-(oxetan-3-yl)piperazin-1-yl]pent-2-enenitrile]
[1]
  ISS7 Change from baseline Mean (SD): −8.96 (5.57)
  ISS7 Change from baseline Median: −9.00
  ISS7 Mean (SD): 7.14 (5.35)
  ISS7 Median: 8.00
  ISS7 Percent change from baseline Mean (SD): −55.24 (31.64) %
  ISS7 Percent change from baseline Median: −52.66%
[2]
  ISS7 Change from baseline Mean (SD): −9.94 (7.89)
  ISS7 Change from baseline Median: −7.33
  ISS7 Mean (SD): 7.06 (6.25)
  ISS7 Median: 6.00
  ISS7 Percent change from baseline Mean (SD): −54.94 (32.91) %
  ISS7 Percent change from baseline Median: −48.16%
[3]
  ISS7 Change from baseline Mean (SD): −8.15 (6.15)
  ISS7 Change from baseline Median: −9.00
  ISS7 Mean (SD): 7.33 (6.55)
  ISS7 Median: 6.00
  ISS7 Percent change from baseline Mean (SD): −53.11 (38.61) %
  ISS7 Percent change from baseline Median: −60.00%
[4]
  ISS7 Change from baseline Mean (SD): −11.00 (9.49)
  ISS7 Change from baseline Median: −14.00
  ISS7 Mean (SD): 6.20 (8.32)
  ISS7 Median: 1.00
  ISS7 Percent change from baseline Mean (SD): −61.52 (49.97) %
  ISS7 Percent change from baseline Median: −93.33%
[5]
  ISS7 Change from baseline Mean (SD): −6.03 (4.99)
  ISS7 Change from baseline Median: −6.00
  ISS7 Mean (SD): 10.72 (5.26)
  ISS7 Percent change from baseline Mean (SD): −36.14 (28.79) %
  ISS7 Percent change from baseline Median: −33.68%
[6]
  ISS7 Change from baseline Mean (SD): −14.00 (NC)
  ISS7 Change from baseline Median: −14.00
  ISS7 Mean (SD): 7.00 (NC)
  ISS7 Median: 7.00
[7]
  ISS7 Change from baseline Mean (SD): −9.01 (5.43)
  ISS7 Change from baseline Median: −9.33
  ISS7 Mean (SD): 7.24 (5.51)
  ISS7 Median: 7.00
  ISS7 Percent change from baseline Mean (SD): −55.59 (31.84) %
  ISS7 Percent change from baseline Median: −53.49%
[8]
  ISS7 Change from baseline Mean (SD): −12.67 (6.71)
  ISS7 Change from baseline Median: −14.00
  ISS7 Mean (SD): 4.33 (6.83)
  ISS7 Median: 1.50
  ISS7 Percent change from baseline Mean (SD): −77.10 (31.49) %
  ISS7 Percent change from baseline Median: −86.61%
[9]
  ISS7 Change from baseline Mean (SD): −7.57 (6.14)
  ISS7 Change from baseline Median: −8.00
  ISS7 Mean (SD): 7.63 (7.11)
  ISS7 Median: 7.00
  ISS7 Percent change from baseline Mean (SD): −51.57 (40.77) %
  ISS7 Percent change from baseline Median: −53.33%
[10]
  ISS7 Change from baseline Mean (SD): −10.83 (9.53)
  ISS7 Change from baseline Median: −15.00
  ISS7 Mean (SD): 6.37 (8.47)
  ISS7 Median: 1.00
  ISS7 Percent change from baseline Mean (SD): −60.71 (51.74) %
  ISS7 Percent change from baseline Median: −95.24%
[11]
  ISS7 Change from baseline Mean (SD): −6.39 (5.27)
  ISS7 Change from baseline Median: −5.42
  ISS7 Percent change from baseline Mean (SD): −37.00 (28.06) %
  ISS7 Percent change from baseline Median: −33.33%
[12]
  ISS7 Change from baseline Mean (SD): 11.00 (NC)
  ISS7 Change from baseline Median: −11.00
  ISS7 Mean (SD): 10.00 (NC)
  ISS7 Percent change from baseline Mean (SD): −52.38 (NC) %
  ISS7 Percent change from baseline Median: −52.38%
[13]
  ISS7 Change from baseline Mean (SD): −9.70 (5.57)
  ISS7 Change from baseline Median: −10.00
  ISS7 Mean (SD): 6.68 (5.31)
  ISS7 Median: 7.00
  ISS7 Percent change from baseline Mean (SD): −58.56 (30.66) %
  ISS7 Percent change from baseline Median: −65.00%
[14]
  ISS7 Change from baseline Mean (SD): −12.36 (6.72)
  ISS7 Change from baseline Median: −13.92
  ISS7 Mean (SD): 4.64 (6.72)
  ISS7 Median: 2.00
  ISS7 Percent change from baseline Mean (SD): −74.49 (30.89) %
  ISS7 Percent change from baseline Median: −83.01%
[15]
  ISS7 Change from baseline Mean (SD): −7.07 (6.58)
  ISS7 Change from baseline Median: −7.58
  ISS7 Mean (SD): 8.17 (7.29)
  ISS7 Median: 7.00
  ISS7 Percent change from baseline Mean (SD): −47.10 (43.27) %
  ISS7 Percent change from baseline Median: −48.10%
[16]
  ISS7 Change from baseline Mean (SD): −9.80 (9.55)
  ISS7 Change from baseline Median: −11.00
  ISS7 Mean (SD): 7.40 (8.11)
  ISS7 Median: 4.00
  ISS7 Percent change from baseline Mean (SD): −53.71 (50.05) %
  ISS7 Percent change from baseline Median: −73.33%
[17]
  ISS7 Change from baseline Mean (SD): −6.43 (5.26)
  ISS7 Change from baseline Median: −6.00
  ISS7 Mean (SD): 10.43 (5.30)
  ISS7 Median: 9.50
  ISS7 Percent change from baseline Mean (SD): −37.25 (29.62) %
  ISS7 Percent change from baseline Median: −39.23%
[18]
  ISS7 Change from baseline Mean (SD): −13.00 (NC)
  ISS7 Change from baseline Median: −13.00
  ISS7 Mean (SD): 8.00 (NC)
  ISS7 Median: 8.00
  ISS7 Percent change from baseline Mean (SD): −61.90 (NC) %
  ISS7 Percent change from baseline Median: −61.90%
[19]
  ISS7 Change from baseline Mean (SD): −9.55 (5.37)
  ISS7 Change from baseline Median: −10.00
  ISS7 Mean (SD): 6.75 (5.25)
  ISS7 Median: 7.00
  ISS7 Percent change from baseline Mean (SD): −58.27 (30.87) %
  ISS7 Percent change from baseline Median: −57.19%
[20]
  ISS7 Change from baseline Mean (SD): −12.17 (8.26)
  ISS7 Change from baseline Median: −13.00
  ISS7 Mean (SD): 4.83 (6.85)
  ISS7 Median: 3.00
  ISS7 Percent change from baseline Mean (SD): −68.55 (36.38) %
  ISS7 Percent change from baseline Median: −79.76%
[21]
  ISS7 Change from baseline Mean (SD): −7.51 (6.18)
  ISS7 Change from baseline Median: −8.00
  ISS7 Mean (SD): 7.93 (6.94)
  ISS7 Median: 7.00
  ISS7 Percent change from baseline Mean (SD): −49.75 (40.18) %
  ISS7 Percent change from baseline Median: −57.14%
[22]
  ISS7 Change from baseline Mean (SD): −10.43 (9.36)
  ISS7 Change from baseline Median: −13.00
  ISS7 Mean (SD): 6.77 (8.14)
  ISS7 Median: 2.00
  ISS7 Percent change from baseline Mean (SD): −58.05 (49.51) %
  ISS7 Percent change from baseline Median: −86.67%
[23]
  ISS7 Change from baseline Mean (SD): −6.07 (4.83)
  ISS7 Change from baseline Median: −6.00
  ISS7 Mean (SD): 11.03 (5.55)
  ISS7 Percent change from baseline Mean (SD): −36.12 (28.12) %
  ISS7 Percent change from baseline Median: −30.00%
[24]
  ISS7 Change from baseline Mean (SD): −12.00 (NC)
  ISS7 Change from baseline Median: −12.00
  ISS7 Mean (SD): 9.00 (NC)
  ISS7 Median: 9.00
  ISS7 Percent change from baseline Mean (SD): −57.14 (NC) %
  ISS7 Percent change from baseline Median: −57.14%
[25]
  ISS7 Change from baseline Mean (SD): −9.23 (5.92)
  ISS7 Change from baseline Median: −9.00
  ISS7 Mean (SD): 6.99 (5.53)
  ISS7 Median: 7.00
  ISS7 Percent change from baseline Mean (SD): −56.08 (33.60) %
  ISS7 Percent change from baseline Median: −60.00%
[26]
  ISS7 Change from baseline Mean (SD): −12.58 (8.36)
  ISS7 Change from baseline Median: −13.75
  ISS7 Mean (SD): 4.42 (6.99)
  ISS7 Median: 1.75
  ISS7 Percent change from baseline Mean (SD): −71.13 (37.09) %
  ISS7 Percent change from baseline Median: −87.50%
[27]
  ISS7 Change from baseline Mean (SD): −7.40 (6.12)
  ISS7 Change from baseline Median: −7.00
  ISS7 Mean (SD): 8.09 (6.95)
  ISS7 Median: 7.00
  ISS7 Percent change from baseline Mean (SD): −49.06 (38.85) %
  ISS7 Percent change from baseline Median: −45.00%
[28]
  ISS7 Change from baseline Mean (SD): −13.50 (9.33)
  ISS7 Change from baseline Median: −16.50
  ISS7 Mean (SD): 4.50 (9.00)
  ISS7 Median: 0.00
  ISS7 Percent change from baseline Mean (SD): −75.00 (50.00) %
  ISS7 Percent change from baseline Median: −100.00%
[29]
  ISS7 Change from baseline Mean (SD): −5.69 (4.72)
  ISS7 Change from baseline Median: −5.33
  ISS7 Median: 11.60
  ISS7 Percent change from baseline Mean (SD): −33.81 (26.94) %
  ISS7 Percent change from baseline Median: −32.64%
[30]
  ISS7 Change from baseline Mean (SD): −14.00 (NC)
  ISS7 Change from baseline Median: −14.00
  ISS7 Mean (SD): 7.00 (NC)
  ISS7 Median: 7.00
[31]
  ISS7 Change from baseline Mean (SD): −10.27 (6.02)
  ISS7 Change from baseline Median: −10.33
  ISS7 Mean (SD): 5.77 (5.26)
  ISS7 Median: 7.00
  ISS7 Percent change from baseline Mean (SD): −62.66 (31.72) %
  ISS7 Percent change from baseline Median: −57.19%
[32]
  ISS7 Change from baseline Mean (SD): −13.00 (9.27)
  ISS7 Change from baseline Median: −17.00
  ISS7 Mean (SD): 4.60 (7.80)
  ISS7 Median: 0.00
  ISS7 Percent change from baseline Mean (SD): −70.36 (41.41) %
  ISS7 Percent change from baseline Median: −100.00%
